{"source": "patent US11129825B2", "about": "“Polysubunit opioid prodrugs resistant to overdose and abuse” (Elysium Therapeutics, Inc., priority 2015, dated 2021)", "key": {"[1]": {"tested_on": "opioid receptors", "details": "after oral doses; cited from earlier work"}, "[2]": {"test": "Pharmacokinetics of delivered hydrocodone after increasing oral doses in dogs", "type": "in vivo", "method": "The effect of increasing oral doses of compounds 2 and 3 on the pharmacokinetics of delivered hydrocodone (i.e. measured plasma hydrocodone concentrations vs. time) was evaluated in dogs. Specific pharmacokinetics parameters of the delivered opioid were calculated (e.g. Cmax, Tmax, AUC) and are presented below in the Table below."}, "[3]": {"tested_on": "trypsin", "test": "Inhibition of trypsin-catalyzed hydrolysis of Nα-Benzoyl-L-arginine 4-nitroanilide hydrochloride in vitro", "type": "biochemical", "details": "pH 7.4, 37° C.; for Percent Nα-Benzoyl-L-arginine 4-nitroanilide hydrochloride remaining: trypsin 2,000 BAEE", "method": "This example describes in vitro experiments with a compound of the disclosure to provide a mechanism of overdose protection.\nThe effect of increasing concentrations of compounds 2 and 3 on the rate and extent of the trypsin-catalyzed hydrolysis of a commercially available trypsin substrate Nα-Benzoyl-L-arginine 4-nitroanilide hydrochloride was evaluated in the presence of trypsin (2,000 BAEE activity) in a pH 7.4 phosphate buffer at 37° C. in vitro. Both buffer alone (i.e. no trypsin) and trypsin (i.e. no compound 2 or 3) controls were run contemporaneously."}, "[4]": {"details": "oral administration; cited from earlier work"}, "[5]": {"details": "hydrochloride salt; cited from earlier work"}}, "data": [{"smiles": "C[C@H]1[C@H]2Cc3ccc(O)cc3[C@]1(C)CCN2CC1CC1", "note": "[cyclazocine]", "values": [{"measurement": "Duration of action", "setting": "[1]", "value": "~24", "unit": "h"}]}, {"smiles": "COc1ccc2c3c1O[C@H]1C(OC(=O)N4CCC(C(=O)NCCCC[C@H](NC(=O)OCc5ccccc5)C(=O)NCCOc5ccc(C(=O)Oc6ccc7cc(C(=N)N)ccc7c6)cc5)CC4CNC(=O)[C@@H](CCCNC(=N)N)NC(=O)CNC(C)=O)=CC[C@H]4[C@@H](C2)N(C)CC[C@]314", "note": "(stereo partly shown) [Compound 2]", "values": [{"measurement": "Release of hydrocodone in vivo with increasing oral doses", "setting": "[2]; increasing oral doses, dogs, result in words", "value": "progressively attenuate the release of hydrocodone in vivo"}, {"measurement": "AUC0-8 h of hydrocodone in dog plasma", "setting": "[2]; oral dose 1.66 umol/kg", "value": 7.79, "unit": "ng·h/mL"}, {"measurement": "Maximum concentration (Cmax) of hydrocodone in dog plasma", "setting": "[2]; oral dose 1.66 umol/kg", "value": 2.87, "unit": "ng/mL HC"}, {"measurement": "Time of maximum concentration (Tmax) of hydrocodone in dog plasma", "setting": "[2]; oral dose 1.66 umol/kg", "value": 0.96, "unit": "h"}, {"measurement": "AUC0-8 h of hydrocodone in dog plasma", "setting": "[2]; oral dose 5 umol/kg", "value": 27, "unit": "ng·h/mL"}, {"measurement": "Maximum concentration (Cmax) of hydrocodone in dog plasma", "setting": "[2]; oral dose 5 umol/kg", "value": 6.49, "unit": "ng/mL HC"}, {"measurement": "Time of maximum concentration (Tmax) of hydrocodone in dog plasma", "setting": "[2]; oral dose 5 umol/kg", "value": 1.38, "unit": "h"}, {"measurement": "AUC0-8 h of hydrocodone in dog plasma", "setting": "[2]; oral dose 10 umol/kg", "value": 37.68, "unit": "ng·h/mL"}, {"measurement": "Maximum concentration (Cmax) of hydrocodone in dog plasma", "setting": "[2]; oral dose 10 umol/kg", "value": 8.37, "unit": "ng/mL HC"}, {"measurement": "Time of maximum concentration (Tmax) of hydrocodone in dog plasma", "setting": "[2]; oral dose 10 umol/kg", "value": 2.08, "unit": "h"}, {"measurement": "AUC0-8 h of hydrocodone in dog plasma", "setting": "[2]; oral dose 35 umol/kg", "value": 64.38, "unit": "ng·h/mL"}, {"measurement": "Maximum concentration (Cmax) of hydrocodone in dog plasma", "setting": "[2]; oral dose 35 umol/kg", "value": 11.87, "unit": "ng/mL HC"}, {"measurement": "Time of maximum concentration (Tmax) of hydrocodone in dog plasma", "setting": "[2]; oral dose 35 umol/kg", "value": 2.13, "unit": "h"}, {"measurement": "Trypsin inhibition with increasing compound concentration", "setting": "[3]; 1 uM to 1 mM, result in words", "value": "progressively inhibit trypsin in a concentration dependent manner"}, {"measurement": "Percent Nα-Benzoyl-L-arginine 4-nitroanilide hydrochloride remaining", "setting": "[3]; compound 1 uM, 2 min", "value": 100, "unit": "%"}, {"measurement": "Percent Nα-Benzoyl-L-arginine 4-nitroanilide hydrochloride remaining", "setting": "[3]; compound 1 uM, 13 min", "value": 39, "unit": "%"}, {"measurement": "Percent Nα-Benzoyl-L-arginine 4-nitroanilide hydrochloride remaining", "setting": "[3]; compound 1 uM, 24 min", "value": 0, "unit": "%"}, {"measurement": "Percent Nα-Benzoyl-L-arginine 4-nitroanilide hydrochloride remaining", "setting": "[3]; compound 1 uM, 80 min", "value": 0, "unit": "%"}, {"measurement": "Percent Nα-Benzoyl-L-arginine 4-nitroanilide hydrochloride remaining", "setting": "[3]; compound 1 uM, 102 min", "value": 0, "unit": "%"}, {"measurement": "Percent Nα-Benzoyl-L-arginine 4-nitroanilide hydrochloride remaining", "setting": "[3]; compound 1 uM, 119 min", "value": 0, "unit": "%"}, {"measurement": "Percent Nα-Benzoyl-L-arginine 4-nitroanilide hydrochloride remaining", "setting": "[3]; compound 1 uM, 234 min", "value": 0, "unit": "%"}, {"measurement": "Percent Nα-Benzoyl-L-arginine 4-nitroanilide hydrochloride remaining", "setting": "[3]; compound 10 uM, 2 min", "value": 100, "unit": "%"}, {"measurement": "Percent Nα-Benzoyl-L-arginine 4-nitroanilide hydrochloride remaining", "setting": "[3]; compound 10 uM, 13 min", "value": 98, "unit": "%"}, {"measurement": "Percent Nα-Benzoyl-L-arginine 4-nitroanilide hydrochloride remaining", "setting": "[3]; compound 10 uM, 24 min", "value": 96, "unit": "%"}, {"measurement": "Percent Nα-Benzoyl-L-arginine 4-nitroanilide hydrochloride remaining", "setting": "[3]; compound 10 uM, 80 min", "value": 94, "unit": "%"}, {"measurement": "Percent Nα-Benzoyl-L-arginine 4-nitroanilide hydrochloride remaining", "setting": "[3]; compound 10 uM, 102 min", "value": 93, "unit": "%"}, {"measurement": "Percent Nα-Benzoyl-L-arginine 4-nitroanilide hydrochloride remaining", "setting": "[3]; compound 10 uM, 119 min", "value": 94, "unit": "%"}, {"measurement": "Percent Nα-Benzoyl-L-arginine 4-nitroanilide hydrochloride remaining", "setting": "[3]; compound 10 uM, 234 min", "value": 87, "unit": "%"}, {"measurement": "Percent Nα-Benzoyl-L-arginine 4-nitroanilide hydrochloride remaining", "setting": "[3]; compound 100 uM, 2 min", "value": 100, "unit": "%"}, {"measurement": "Percent Nα-Benzoyl-L-arginine 4-nitroanilide hydrochloride remaining", "setting": "[3]; compound 100 uM, 13 min", "value": 98, "unit": "%"}, {"measurement": "Percent Nα-Benzoyl-L-arginine 4-nitroanilide hydrochloride remaining", "setting": "[3]; compound 100 uM, 24 min", "value": 100, "unit": "%"}, {"measurement": "Percent Nα-Benzoyl-L-arginine 4-nitroanilide hydrochloride remaining", "setting": "[3]; compound 100 uM, 80 min", "value": 99, "unit": "%"}, {"measurement": "Percent Nα-Benzoyl-L-arginine 4-nitroanilide hydrochloride remaining", "setting": "[3]; compound 100 uM, 102 min", "value": 99, "unit": "%"}, {"measurement": "Percent Nα-Benzoyl-L-arginine 4-nitroanilide hydrochloride remaining", "setting": "[3]; compound 100 uM, 119 min", "value": 99, "unit": "%"}, {"measurement": "Percent Nα-Benzoyl-L-arginine 4-nitroanilide hydrochloride remaining", "setting": "[3]; compound 100 uM, 234 min", "value": 99, "unit": "%"}, {"measurement": "Percent Nα-Benzoyl-L-arginine 4-nitroanilide hydrochloride remaining", "setting": "[3]; compound 1 mM, 2 min", "value": 100, "unit": "%"}, {"measurement": "Percent Nα-Benzoyl-L-arginine 4-nitroanilide hydrochloride remaining", "setting": "[3]; compound 1 mM, 13 min", "value": 100, "unit": "%"}, {"measurement": "Percent Nα-Benzoyl-L-arginine 4-nitroanilide hydrochloride remaining", "setting": "[3]; compound 1 mM, 24 min", "value": 99, "unit": "%"}, {"measurement": "Percent Nα-Benzoyl-L-arginine 4-nitroanilide hydrochloride remaining", "setting": "[3]; compound 1 mM, 80 min", "value": 100, "unit": "%"}, {"measurement": "Percent Nα-Benzoyl-L-arginine 4-nitroanilide hydrochloride remaining", "setting": "[3]; compound 1 mM, 102 min", "value": 100, "unit": "%"}, {"measurement": "Percent Nα-Benzoyl-L-arginine 4-nitroanilide hydrochloride remaining", "setting": "[3]; compound 1 mM, 119 min", "value": 100, "unit": "%"}, {"measurement": "Percent Nα-Benzoyl-L-arginine 4-nitroanilide hydrochloride remaining", "setting": "[3]; compound 1 mM, 234 min", "value": 100, "unit": "%"}]}, {"smiles": "O=C1CC[C@@]2(O)[C@H]3Cc4ccc(O)c5c4[C@@]2(CCN3CC2CC2)[C@H]1O5", "note": "[naltrexone]", "values": [{"measurement": "Oral bioavailability", "setting": "[4]", "value": "5-40%"}, {"measurement": "Solubility in water", "setting": "[5]", "value": "about 100 mg/mL"}, {"measurement": "Duration of action", "setting": "[1]", "value": "~24", "unit": "h"}]}]}
